Test results published in ChEMBL document CHEMBL5370539, “Oxazole-4-carboxamide/butylated hydroxytoluene hybrids with GSK-3β inhibitory and neuroprotective activities against Alzheimer's disease” (Eur J Med Chem, 2023).
Activity calls are given as the source filed them. No cut-off for these calls is given here.

What was measured:
[1] = target: Glycogen synthase kinase-3 beta (Homo sapiens, UniProt P49841); assay: Inhibition of recombinant human GSK-3beta using YRRAAVPPSPSLSRHSSPHQ(pS)EDEE as substrate preincubated for 15 mins followed by substrate addition and measured after 60 mins by Kinase-Glo luminescent kinase assay
PC-12 = assay: Neuroprotective activity against H2O2-induced cytotoxicity in rat PC12 cells assessed as increase in cell viability at 10 uM preincubated for 12 hrs followed by replacement with fresh media and H2O2 stimulation for 12 hrs by MTT assay; format: functional, cell-based

Chain of Glycogen synthase kinase-3 beta (P49841 whole entry): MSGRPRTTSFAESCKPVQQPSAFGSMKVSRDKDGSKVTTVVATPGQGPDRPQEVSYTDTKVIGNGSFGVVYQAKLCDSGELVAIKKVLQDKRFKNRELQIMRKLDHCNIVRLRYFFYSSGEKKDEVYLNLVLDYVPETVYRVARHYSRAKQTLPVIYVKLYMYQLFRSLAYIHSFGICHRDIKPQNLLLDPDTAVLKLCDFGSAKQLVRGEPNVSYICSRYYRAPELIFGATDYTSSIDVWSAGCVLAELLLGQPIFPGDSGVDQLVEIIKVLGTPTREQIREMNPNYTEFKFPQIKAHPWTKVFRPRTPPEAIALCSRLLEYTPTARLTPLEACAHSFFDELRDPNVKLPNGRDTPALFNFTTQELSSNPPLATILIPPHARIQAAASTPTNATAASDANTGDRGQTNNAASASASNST

| Structure (SMILES) | IC50 [1] [nM] | Activity (PC-12) |
| --- | --- | --- |
| COc1c(F)cc(-c2ocnc2C(=O)NCCCNC(=O)c2cc(C(C)(C)C)c(O)c(C(C)(C)C)c2)cc1F | 0.96 | – |
| COc1ccc(-c2ocnc2C(=O)NCCCc2ccc(NC(=O)c3cc(C(C)(C)C)c(O)c(C(C)(C)C)c3)cc2)cc1Cl | 0.92 | Active |
| COc1ccc(-c2ocnc2C(=O)NCCCCNC(=O)CCc2cc(C(C)(C)C)c(O)c(C(C)(C)C)c2)cc1Cl | 0.84 | Active |
| COc1ccc(-c2ocnc2C(=O)NCCCNC(=O)/C=C/c2cc(C(C)(C)C)c(O)c(C(C)(C)C)c2)cc1Cl | 0.41 | – |
| COc1ccc(-c2ocnc2C(=O)NCCCn2cc(CNC(=O)CCc3cc(C(C)(C)C)c(O)c(C(C)(C)C)c3)nn2)cc1I | 0.81 | – |
| COc1ccc(-c2ocnc2C(=O)NCCCCNC(=O)c2cc(C(C)(C)C)c(O)c(C(C)(C)C)c2)cc1Cl | 0.81 | Active |
| COc1ccc(-c2ocnc2C(=O)NCCCCNC(=O)c2cc(C(C)(C)C)c(O)c(C(C)(C)C)c2)cc1F | 0.62 | Active |
| COc1ccc(-c2ocnc2C(=O)NCCCn2cc(CNC(=O)CCc3cc(C(C)(C)C)c(O)c(C(C)(C)C)c3)nn2)cc1Cl | 0.27 | – |
| COc1ccc(-c2ocnc2C(=O)NCCCNC(=O)CCc2cc(C(C)(C)C)c(O)c(C(C)(C)C)c2)cc1F | > 1 | – |
| COc1ccc(-c2ocnc2C(=O)NCCCNC(=O)CCc2cc(C(C)(C)C)c(O)c(C(C)(C)C)c2)cc1Cl | > 1 | – |
| COc1ccc(-c2ocnc2C(=O)NCCCNC(=O)c2cc(C(C)(C)C)c(O)c(C(C)(C)C)c2)cc1Cl | > 1 | – |
| COc1ccc(-c2ocnc2C(=O)NCCCn2cc(CNC(=O)c3cc(C(C)(C)C)c(O)c(C(C)(C)C)c3)nn2)cc1I | 0.31 | – |
| COc1ccc(-c2ocnc2C(=O)NCCCNC(=O)/C=C/c2cc(C(C)(C)C)c(O)c(C(C)(C)C)c2)cc1I | > 1 | – |
| COc1ccc(-c2ocnc2C(=O)NCCCn2cc(CNC(=O)/C=C/c3cc(C(C)(C)C)c(O)c(C(C)(C)C)c3)nn2)cc1I | 0.33 | – |
| COc1ccc(-c2ocnc2C(=O)NCCCNC(=O)c2cc(C(C)(C)C)c(O)c(C(C)(C)C)c2)cc1F | > 1 | – |
| COc1ccc(-c2ocnc2C(=O)NCCCNC(=O)CCc2cc(C(C)(C)C)c(O)c(C(C)(C)C)c2)cc1I | > 1 | – |
| COc1ccc(-c2ocnc2C(=O)NCCCn2cc(CNC(=O)/C=C/c3cc(C(C)(C)C)c(O)c(C(C)(C)C)c3)nn2)cc1Cl | 0.76 | – |
| COc1ccc(-c2ocnc2C(=O)NCCCn2cc(CNC(=O)c3cc(C(C)(C)C)c(O)c(C(C)(C)C)c3)nn2)cc1Cl | > 1 | – |
| COc1c(F)cc(-c2ocnc2C(=O)NCCCNC(=O)CCc2cc(C(C)(C)C)c(O)c(C(C)(C)C)c2)cc1F | > 1 | – |
| COc1ccc(-c2ocnc2C(=O)NCCCc2ccc(NC(=O)/C=C/c3cc(C(C)(C)C)c(O)c(C(C)(C)C)c3)cc2)cc1F | > 1 | – |
| COc1ccc(-c2ocnc2C(=O)NCCCNC(=O)c2cc(C(C)(C)C)c(O)c(C(C)(C)C)c2)cc1I | 0.48 | – |
| COc1ccc(-c2ocnc2C(=O)NCCCc2ccc(NC(=O)CCc3cc(C(C)(C)C)c(O)c(C(C)(C)C)c3)cc2)cc1Cl | > 1 | – |
| COC(=O)[C@@]12OC[C@]34[C@H]([C@@H](O)[C@@H]1O)[C@@]1(C)CC(=O)C(O)=C(C)[C@@H]1C[C@H]3OC(=O)[C@H](OC(=O)C=C(C)C)[C@@H]24 | – | inactive |
| COc1ccc(-c2ocnc2C(=O)NCCCCNC(=O)CCc2cc(C(C)(C)C)c(O)c(C(C)(C)C)c2)cc1F | 0.78 | Active |
| COc1c(F)cc(-c2ocnc2C(=O)NCCCc2ccc(NC(=O)/C=C/c3cc(C(C)(C)C)c(O)c(C(C)(C)C)c3)cc2)cc1F | 0.95 | Active |
